Holding throughout (type): cell-based
The target of assay [1] is T1, human Nav1.7 (Homo sapiens, UniProt Q15858).
T1 construct: expressed in transfected cells; host or cells: HEK293
The assay can be described thus: Nav 1.7 IWQ In Vitro Assay (IonWorks Quattro). The settings on record: HEK293 cells stably transfected with human Nav 1.7; IonWorks Quattro population patch-clamp; 26th pulse to −20 mV, 5 Hz; cells unclamped 5 to 8 minutes with compound; read-out: hNav1.7 IWQ IC50. In outline:
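Population patch clamp on HEK293 cells stably expressing human Nav 1.7: held at −110 mV for three seconds, then 26 pulses of 150 msec to −20 mV at 5 Hz, before and after 5-8 min with one compound concentration. Percent inhibition from peak current at the 26th pulse.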

For assay [2], the target named is T1, human Nav1.7. The assay is described as follows: Nav 1.7 IWB In Vitro Assay (IonWorks Barracuda). As to conditions: HEK293 cells stably transfected with human Nav 1.7; IonWorks Barracuda population patch-clamp; cells clamped to −20 mV for 4 minutes with compound; 26th pulse; read-out: hNav1.7 IWB IC50. In outline:
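Population patch clamp of HEK293 cells stably expressing human Nav 1.7: 26 pulses to −20 mV (150 ms, 5 Hz) from −110 mV, then 4 min at −20 mV with compound, 3 s recovery at −110 mV and the train repeated. % inhibition of 26th-pulse peak current vs no compound; IC50 from concentration-response curves.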
Background: In patch-clamp work, channel activity is measured electrically.

The target of assay [3] is T1, human Nav1.7. The assay is described as follows: Nav 1.7 In Vitro PatchXpress (PX) Assay. As to conditions: HEK 293 cells stably transfected with human Nav1.7; PatchXpress whole cell voltage clamp; partially inactivated state (holding potential yielding 20 to 50% inactivation); read-out: hNav1.7 PX IC50. In outline:
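Whole-cell voltage clamp on HEK 293 cells stably expressing human Nav1.7 (automated patch), holding potential giving 20–50% inactivation; 20 ms pulses to −10 mV at 0.1 Hz. Single compound concentration applied 3 min, peak current inhibition measured; IC50 fitted from 3–5 cells per concentration.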

For orientation: IC50 means the concentration needed to halve the response being measured.

T1 sequence (Q15858 whole entry): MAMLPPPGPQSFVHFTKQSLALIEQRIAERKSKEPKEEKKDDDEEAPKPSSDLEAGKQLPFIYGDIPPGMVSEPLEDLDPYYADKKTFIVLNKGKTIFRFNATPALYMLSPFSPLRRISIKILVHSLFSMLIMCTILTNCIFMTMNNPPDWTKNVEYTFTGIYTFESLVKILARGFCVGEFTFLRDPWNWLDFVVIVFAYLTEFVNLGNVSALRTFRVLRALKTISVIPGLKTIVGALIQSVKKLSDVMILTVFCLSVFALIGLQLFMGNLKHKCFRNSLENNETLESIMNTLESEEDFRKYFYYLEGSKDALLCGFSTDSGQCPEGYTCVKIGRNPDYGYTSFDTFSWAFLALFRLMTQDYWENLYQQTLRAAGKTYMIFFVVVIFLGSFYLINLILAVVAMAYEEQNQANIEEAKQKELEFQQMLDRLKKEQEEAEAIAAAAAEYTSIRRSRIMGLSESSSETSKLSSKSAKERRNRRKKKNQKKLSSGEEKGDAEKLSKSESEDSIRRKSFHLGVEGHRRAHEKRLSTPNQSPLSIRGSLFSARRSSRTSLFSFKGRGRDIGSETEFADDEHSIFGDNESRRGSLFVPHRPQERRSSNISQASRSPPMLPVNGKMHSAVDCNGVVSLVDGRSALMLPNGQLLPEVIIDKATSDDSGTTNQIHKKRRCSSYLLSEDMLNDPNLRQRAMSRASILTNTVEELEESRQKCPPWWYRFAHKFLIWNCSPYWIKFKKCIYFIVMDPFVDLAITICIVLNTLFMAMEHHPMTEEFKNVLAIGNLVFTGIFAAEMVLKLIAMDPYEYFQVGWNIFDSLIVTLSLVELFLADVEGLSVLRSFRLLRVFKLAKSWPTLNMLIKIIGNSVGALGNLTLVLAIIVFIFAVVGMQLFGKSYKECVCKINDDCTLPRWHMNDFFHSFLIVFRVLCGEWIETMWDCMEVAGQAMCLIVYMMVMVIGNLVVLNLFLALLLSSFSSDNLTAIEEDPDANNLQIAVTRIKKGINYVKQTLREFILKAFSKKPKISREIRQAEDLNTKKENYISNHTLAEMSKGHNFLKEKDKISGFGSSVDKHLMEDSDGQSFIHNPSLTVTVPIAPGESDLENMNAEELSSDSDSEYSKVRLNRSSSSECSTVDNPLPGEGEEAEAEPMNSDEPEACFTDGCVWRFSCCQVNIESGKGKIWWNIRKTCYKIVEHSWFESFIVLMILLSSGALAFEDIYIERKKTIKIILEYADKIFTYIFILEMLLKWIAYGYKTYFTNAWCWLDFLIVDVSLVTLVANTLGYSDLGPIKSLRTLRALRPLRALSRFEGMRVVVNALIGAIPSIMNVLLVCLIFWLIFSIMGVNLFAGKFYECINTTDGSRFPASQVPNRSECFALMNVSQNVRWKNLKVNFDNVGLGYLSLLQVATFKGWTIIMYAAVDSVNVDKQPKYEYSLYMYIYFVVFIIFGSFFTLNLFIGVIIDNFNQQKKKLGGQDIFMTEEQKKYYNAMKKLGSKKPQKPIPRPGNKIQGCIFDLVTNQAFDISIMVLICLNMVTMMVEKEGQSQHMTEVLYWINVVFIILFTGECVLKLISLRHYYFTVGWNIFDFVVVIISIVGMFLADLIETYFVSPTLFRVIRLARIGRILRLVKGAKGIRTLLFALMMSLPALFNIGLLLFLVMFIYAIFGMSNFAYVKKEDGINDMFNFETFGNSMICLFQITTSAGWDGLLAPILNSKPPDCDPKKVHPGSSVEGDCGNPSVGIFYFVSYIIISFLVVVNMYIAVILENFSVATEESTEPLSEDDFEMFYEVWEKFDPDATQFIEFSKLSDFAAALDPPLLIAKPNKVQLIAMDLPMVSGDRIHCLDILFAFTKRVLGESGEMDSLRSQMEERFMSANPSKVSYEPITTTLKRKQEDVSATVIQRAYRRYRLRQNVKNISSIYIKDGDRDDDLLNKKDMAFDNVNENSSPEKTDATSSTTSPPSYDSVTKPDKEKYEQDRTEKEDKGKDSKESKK

Take `COc1cc(-c2ccc(F)c(C)c2)c(F)cc1-n1c2c(ccc1=O)CN(S(=O)(=O)Nc1ccon1)CC2` (single isomer, unassigned) [Example 22-P, P-1-(2,4′-difluoro-5-methoxy-3′-methyl-4-biphenylyl)-N-3-isoxazolyl-2-oxo-1,5,7,8-tetrahydro-1,6-naphthyridine-6(2H)-sulfonamide]: the IC50 at human Nav1.7 [1] is 3.2 nM; on human Nav1.7 [2], 8 nM; on human Nav1.7 [3], 106 nM.
